In patent US6555582B1, “Eye treatments using synthetic thyroid hormone compositions” (The Regents of the University of California, priority 1996, dated 2003):
Like-named read-outs stand apart in the source and are kept apart here.

Tests used:
HTM cells [1] = settings: 10^−7 M, non-confluent cultures, serum-free, day 10, vs controls lacking T3
[2] = tested on: Normal pigmented Dutch rabbits
CD44E = settings: HTM cells exposed to supplemental T3 for 18 hours
Description: (§1) To investigate whether CD44 receptors are expressed by HTM cells, four CD44 isoforms can be measured using RT-PCR analysis with probes for CD44s, CD44E, CD44-v1 and CD44-v3. […] RNA was made using RNA TrackTM (Biotecx, Friendswood, Tex.). The RNA was used as a template for the first strand synthesis of cDNA in a reaction mixture containing 1000 U Moloney Murine Leukemia Virus Reverse Transcriptase (BRL, Gaithersburg, Md.), 50 mM random hexamer primer, 50 mM Tris-HCl (pH 8.3), 75 mM KCl, 10 mM dithiothreitol, 3 mM MgC12, 0.5 mM each of dGTP, dATP, dTTP and dCTP in 60 ul total volume. The cDNA reactions were carried out at 37° C. for 90 min, and then diluted 1:3 or 1:7 in water, pretreated with DEPC. Oligonucleotide primers were diluted to 40 μM in water.
(§2) For RT-PCR, a modified hot start method was used. A quantity of 3-5 μl of cDNA was added to 30 μl of a master mix containing 0.8 μl of each primer, 17 mM Tris-HCI (pH 8.3) and 80 mM KCI. Water was added to the cDNA reactions to a final volume of 40 μl. All reactions were overlaid with light mineral oil and heated to 99° C. After 10 min the reactions were cooled to 94° C. and a 10 μl volume containing 7 mM MgCI2, 1 mM each of dATP, dTTP, dGTP and dCTP, and 1.2 U Taq Polymerase (Perkin-Elmer Cetus, Branchburg, N.J.) was added directly through the oil overlay. […]

HTM cells [3] = settings: 10^−7M
Description: The assay system visualizes the cell's extracellular matrix by taking advantage of its ability to exclude added formalized red blood cells from an area around the cell. Proteoglycan monomer and HA are added to the cells in excess as pericellular matrix assembly is observed by microscopy.
HTM cells were plated on 35-mm dishes at a density of 1×10^4 cells per plate. […] For exogenous matrix assembly, cells were then incubated for 3 hours at 37° C. with 3.0 mg/ml of aggregating proteoglycan monomer (purified from rat chondrosarcoma tumor (Ref. 1)) and 15 μg/ml of hyaluronan (grade 1, Sigma Chemical Co., St. Louis, Mo.). The medium was removed and 0.75 ml of a suspension of formaldehyde fixed red blood cells (1×10^8 cells/ml) in phosphate buffered saline with 0.1% bovine serum albumin was added to each well of cells. After 10 minutes the cells and extracellular matrices (ECMs) were observed visualized by phase contrast microscopy (REF 2, 3). The cell matrices were categorized into one of three groups. Cells having no coats have no visible ECM. Cells having small coats have a visible ECM that extends less than the width of the cell's nucleus out from the cell's plasma membrane. Cells having large coats have a visible ECM that extends greater than the width of the cell's nucleus out from the cell's plasma membrane.

CD44-v 3 = settings: HTM cells exposed to supplemental T3 for 18 hours
Description: as §1, §2

HTM cells [4] = settings: for reduction in HA secretion: T3-supplemented vs T3-stripped media (No Tx)

3,3′-5-triiodo-L-thyronine [T3]
fold increase in secreted hyaluronidase activity (HTM cells [1]): 1.9 fold
decrease in IOP within three weeks of administration ([2]; five rabbits): at least some detectable decrease in IOP
largest decrease in IOP after three weeks of T3 administration ([2]; one rabbit): 25%
expression of CD44E isoform (CD44E): dramatic reduction
fold greater number of cells with no coats than cells grown in the absence of T3 (HTM cells [3]; 2 days): ~2 fold
fold greater number of cells with no coats than cells grown in the absence of T3 (HTM cells [3]; 4 days): more than 4 fold
expression of CD44-v 3 isoform (CD44-v 3): dramatic reduction
fold reduction in secreted HA concentration (HTM cells [4]; 10^−7 M, confluent cells, day 5, vs control cultures): 2.95 fold
reduction in HA secretion (HTM cells [4]; day 2, FIG. 1): 57%
reduction in HA secretion (HTM cells [4]; day 4, FIG. 1): 66%
T3 concentration of maximal inhibition of HA production (HTM cells [4]; cultured HTM cells, FIG. 2): 10^−7-10^−6 M
reduction of HA concentration in the media, non-confluent vs confluent treated cells (HTM cells [4]; non-confluent (less than 75% confluent) cells): even greater reduction
EC50 (HTM cells [4]; read-out: half maximal concentration for reduction of HA concentration, confluent cells, dose response curve FIG. 2): ~5 nM
